Results published in patent US20180264134A1, “A COMPOSITION OF GOLD NANOPARTICLES HAVING ANTIMICROBIAL PEPTIDES BOUND ON THEIR SURFACE FOR USE THE TREATMENT OF WOUND HEALING OR IN THE TREATMENT OF ISCHEMIC OR VASCULAR DISEASES OR IN THE TREATMENT OF SKIN DISORDERS” (priority 2015, published 2018).

Tests used:
HaCaT = experiment: Membrane potential by DiOC5(3) flow cytometry in HaCaT; format: cell-based, human
Experimental: In an embodiment the membrane potential can be determined by: HUVEC and HaCaT cells were seeded at a density of 4×10^4 cells/cm^2 and in 24-well plates and cultured for 24 h. […] Soluble LL37 were also used in the concentration of 0.5, 1, 10, 30, 60 μg/mL. After 5 and 48 h, cells were harvested, resuspended in medium with 5 nM of DiOC5(3) (Sigma-Aldrich) and incubated for 5 min at room temperature in the dark, prior to the analysis with the flow cytometer (FACSCalibur, BD Biosciences). Cells treated with gramicidin (10 μM) or valinomycin (10 μM) were used as controls for cell depolarization and hyperpolarization, respectively.

HUVECs = experiment: Membrane potential by DiOC5(3) flow cytometry in HUVECs; format: cell-based, human; details: 5 h exposure
Experimental: In an embodiment the membrane potential can be determined by: HUVEC and HaCaT cells were seeded at a density of 4×10^4 cells/cm^2 and in 24-well plates and cultured for 24 h. Either LL37 Au-NPs or Au-NPs suspended in culture medium at different concentrations (25, 50, 100 and 200 μg/mL, n=3) were added to cells. Soluble LL37 were also used in the concentration of 0.5, 1, 10, 30, 60 μg/mL. After 5 and 48 h, cells were harvested, resuspended in medium with 5 nM of DiOC5(3) (Sigma-Aldrich) and incubated for 5 min at room temperature in the dark, prior to the analysis with the flow cytometer (FACSCalibur, BD Biosciences). Cells treated with gramicidin (10 μM) or valinomycin (10 μM) were used as controls for cell depolarization and hyperpolarization, respectively.

HaCaT keratinocyte cells = experiment: Internalization mechanism (endocytosis inhibitors / siRNA, flow cytometry); format: cell-based, human; details: vs scrambled siRNA
Experimental: In an embodiment the HaCaT keratinocyte cells were cultured on 24 well plates (1×10^6 cells/well) and inhibited by one of the following chemicals during 30 min before adding a suspension of Rhodamine-labelled NPs (15 μg/mL): dynasor (100 μM), cytochalasin D (100 μM), nocodazole (25 uM), filipin III (1 μM) and polyinosinic acid (100 μg/mL), 5-(N-ethyl-N-isopropyl)amiloride (EIPA), dextran sulfate. The inhibitor concentrations were based in values reported in literature and further validated by us to have no cytotoxic effect over the period of the assay (6 h), as confirmed by viability assay. The incubation of the cells with NPs for different times was performed in the presence of the inhibitor. As controls, HaCaT keratinocyte cells without NPs and cells incubated with NPs without inhibitor were used. […] Cells were then evaluated as before.
In an embodiment the NP uptake mechanism was also studied on HaCaT keratinocyte cells by silencing specific proteins of clathrin-mediated endocytosis (CLTC and LDLR), caveolin-mediated endocytosis (CAV1), GEEC-CCLIC pathways (CDC42) and macropinocytosis (RAC1 and CTBP1) and scavenger receptor (SCARA3) by siRNA (Thermo Fisher). […] In all FACS analysis, a total of 10,000 events were recorded per run. […]

venous leg ulcers = details: cited from earlier work

CC[C@H](C)[C@H](NC(=O)[C@H](CCCCN)NC(=O)[C@H](CCC(=O)O)NC(=O)[C@H](CCCCN)NC(=O)[C@H](CO)NC(=O)[C@H](CCCCN)NC(=O)[C@H](CCCNC(=N)N)NC(=O)[C@H](Cc1ccccc1)NC(=O)[C@H](Cc1ccccc1)NC(=O)[C@H](CC(=O)O)NC(=O)CNC(=O)[C@H](CC(C)C)NC(=O)[C@@H](N)CC(C)C)C(=O)NCC(=O)N[C@@H](CCCCN)C(=O)N[C@@H](CCC(=O)O)C(=O)N[C@@H](Cc1ccccc1)C(=O)N[C@@H](CCCCN)C(=O)N[C@@H](CCCNC(=N)N)C(=O)N[C@H](C(=O)N[C@H](C(=O)N[C@@H](CCC(N)=O)C(=O)N[C@@H](CCCNC(=N)N)C(=O)N[C@H](C(=O)N[C@@H](CCCCN)C(=O)N[C@@H](CC(=O)O)C(=O)N[C@@H](Cc1ccccc1)C(=O)N[C@@H](CC(C)C)C(=O)N[C@@H](CCCNC(=N)N)C(=O)N[C@@H](CC(N)=O)C(=O)N[C@@H](CC(C)C)C(=O)N[C@H](C(=O)N1CCC[C@H]1C(=O)N[C@@H](CCCNC(=N)N)C(=O)N[C@H](C(=O)N[C@@H](CCC(=O)O)C(=O)N[C@@H](CO)C(=O)N[C@@H](CS)C(N)=O)[C@@H](C)O)C(C)C)[C@@H](C)CC)C(C)C)[C@@H](C)CC [LL37]
membrane potential of keratinocytes (HaCaT; 5 h of contact): hyperpolarized | membrane potential of keratinocytes (HaCaT; 48 h of contact): not observed | membrane potential of keratinocytes (HaCaT; 48 h of contact, listed as LL37 peptide): the effect was lost | membrane potential of HaCaT (HaCaT; NPs up to 400 μg/mL): not altered | concentration causing slight hyperpolarization (HaCaT; keratinocytes, 5 h exposure): above 25 μg/mL | concentration causing depolarization (HUVECs): above 30 μg/mL | concentration causing hyperpolarization (HUVECs): below 30 μg/mL | reduction of uptake upon SCARA3 siRNA knockdown (HaCaT keratinocyte cells): 60% | primary safety and tolerability end-point (venous leg ulcers; patients with venous leg ulcers): met | healing rate compared with placebo (venous leg ulcers; twice per week, 0.5 mg/mL): statistically significant improved healing rate
